From PubChem BioAssay (NCI)
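A five-concentration, 48-hour dose response in 96-well plates underlies each endpoint, interpolated linearly between surrounding concentrations. TGI marks complete inhibition of growth.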

Experiments:
Assay in all cases: NCI-60 cell line screen, 48 h
SK-MEL-28 melanoma = system: SK-MEL-28 melanoma
HT29 colon = system: HT29 colon
UO-31 renal = system: UO-31 renal
SF-295 CNS = system: SF-295 CNS
HOP-92 NSCLC = system: HOP-92 NSCLC
786-0 renal = system: 786-0 renal
SF-539 CNS = system: SF-539 CNS
NCI/ADR-RES ovarian = system: NCI/ADR-RES ovarian
TK-10 renal = system: TK-10 renal
SK-MEL-2 melanoma = system: SK-MEL-2 melanoma

Measured: TGI

CCOC(=O)C1CCC(=O)N1C(=O)c1cccc(Cl)c1 (stereo unspecified)
> 100 µM: SK-MEL-28 melanoma | HT29 colon | UO-31 renal | SF-295 CNS | HOP-92 NSCLC | 786-0 renal | SF-539 CNS | NCI/ADR-RES ovarian | TK-10 renal

O=c1cc(N2CCOCC2)n2c(ccc3ccccc32)n1
> 100 µM: SK-MEL-2 melanoma | HT29 colon | UO-31 renal | SF-295 CNS | HOP-92 NSCLC | 786-0 renal | SF-539 CNS | NCI/ADR-RES ovarian | TK-10 renal

O=c1[nH]nc(-c2ccccc2)c2[nH]c3c(c12)Cc1ccccc1-3
> 28.3 µM: SF-539 CNS
> 100 µM: SK-MEL-2 melanoma | SK-MEL-28 melanoma | UO-31 renal | SF-295 CNS | 786-0 renal | NCI/ADR-RES ovarian | TK-10 renal
> 70 µM: HT29 colon
9.68 µM: HOP-92 NSCLC

Cc1ccc(S(=O)(=O)OCCC2CN(C(=O)OCc3ccccc3)C(C)(C)O2)cc1 (stereo unspecified)
15.4 µM: UO-31 renal
> 100 µM: SF-295 CNS | HOP-92 NSCLC | 786-0 renal | SF-539 CNS | TK-10 renal
94.5 µM: SK-MEL-2 melanoma
15.7 µM: NCI/ADR-RES ovarian
82.1 µM: SK-MEL-28 melanoma

CCOC(=O)c1cc2c3c(c(C(C)=O)c(OC)c2[nH]1)N(C(=O)CC)CC3
41.7 µM: SF-539 CNS
39.1 µM: SF-295 CNS
34.9 µM: 786-0 renal
48.3 µM: SK-MEL-2 melanoma
44.7 µM: SK-MEL-28 melanoma
30.5 µM: HT29 colon
31 µM: NCI/ADR-RES ovarian
28.9 µM: HOP-92 NSCLC
27 µM: UO-31 renal

CC(C)(C)c1cc(OCc2nnc3sc(Cc4ccccc4)nn23)c(Cl)cc1OCc1nnc2sc(Cc3ccccc3)nn12
82.9 µM: TK-10 renal
35.4 µM: HOP-92 NSCLC
46.7 µM: 786-0 renal
> 100 µM: SK-MEL-2 melanoma | SK-MEL-28 melanoma | UO-31 renal | SF-295 CNS | SF-539 CNS | NCI/ADR-RES ovarian
57.8 µM: HT29 colon

Cc1cc(C)nc(NS(=O)(=O)c2ccc(NNc3c4ccccc4nc4c(C(=O)Nc5ccc(S(=O)(=O)Nc6cc(C)on6)cc5)cccc34)cc2)n1
62.5 µM: SK-MEL-2 melanoma
49.1 µM: HT29 colon
> 100 µM: UO-31 renal | SF-295 CNS | HOP-92 NSCLC | 786-0 renal | SF-539 CNS | NCI/ADR-RES ovarian | TK-10 renal

Cc1nc2ccc(Br)cc2c(=O)n1-c1ccc(N)cc1
> 100 µM: SK-MEL-2 melanoma | SK-MEL-28 melanoma | HT29 colon | UO-31 renal | SF-295 CNS | HOP-92 NSCLC | 786-0 renal | SF-539 CNS | NCI/ADR-RES ovarian | TK-10 renal

NC1CCCCC1NCCNC1CCCCC1N (stereo unspecified)
36 µM: HT29 colon
> 100 µM: SK-MEL-2 melanoma | SK-MEL-28 melanoma | UO-31 renal | SF-295 CNS | HOP-92 NSCLC | 786-0 renal | SF-539 CNS | NCI/ADR-RES ovarian | TK-10 renal

C=CC(C)(C)/C=C/c1ccc(O)cc1
> 100 µM: SK-MEL-28 melanoma | HT29 colon | SF-295 CNS | HOP-92 NSCLC | 786-0 renal | SF-539 CNS | NCI/ADR-RES ovarian | TK-10 renal
60.5 µM: SK-MEL-2 melanoma

COc1cccc2c1OC1c3ccccc3OCC1(O)C2 (stereo unspecified)
> 100 µM: SK-MEL-2 melanoma | HT29 colon | UO-31 renal | SF-295 CNS | HOP-92 NSCLC | 786-0 renal | SF-539 CNS | NCI/ADR-RES ovarian | TK-10 renal

Oc1c(Cl)cc2cc1-c1cc(cc(Cl)c1O)CCc1c(cc(Cl)c(O)c1Cl)-c1cc(Cl)c(c(Cl)c1O)/C=C\2
30.8 µM: NCI/ADR-RES ovarian
34.7 µM: HOP-92 NSCLC
19.3 µM: SK-MEL-28 melanoma
16.6 µM: 786-0 renal
25.2 µM: HT29 colon
17.5 µM: SK-MEL-2 melanoma

CC(=O)/C=C/c1ccccc1
> 100 µM: SK-MEL-2 melanoma | SK-MEL-28 melanoma | HT29 colon | UO-31 renal | SF-295 CNS | NCI/ADR-RES ovarian | TK-10 renal
49.1 µM: 786-0 renal
64.6 µM: SF-539 CNS

O=C1C=C(N2CCN(c3ncccn3)CC2)C(=O)c2c(O)ccc(O)c21
55.7 µM: SF-539 CNS
> 100 µM: SK-MEL-28 melanoma | HT29 colon | UO-31 renal | SF-295 CNS | HOP-92 NSCLC | 786-0 renal | NCI/ADR-RES ovarian | TK-10 renal

COc1ccc(-n2c(N)c(C#N)c(C#N)c2-c2ccco2)cc1
> 100 µM: SK-MEL-2 melanoma | HT29 colon | UO-31 renal | SF-295 CNS | HOP-92 NSCLC | 786-0 renal | SF-539 CNS | NCI/ADR-RES ovarian | TK-10 renal

COc1ccc(/C=c2\[nH]c3nc(=O)c(N4CCCCC4)c(N)n3c2=O)cc1
> 100 µM: SK-MEL-28 melanoma | HT29 colon | UO-31 renal | SF-295 CNS | HOP-92 NSCLC | 786-0 renal | SF-539 CNS | NCI/ADR-RES ovarian | TK-10 renal

Cc1nc(C)c(N2CCN(CN)CC2)c(=O)[nH]1
> 100 µM: SK-MEL-28 melanoma | HT29 colon | UO-31 renal | SF-295 CNS | HOP-92 NSCLC | 786-0 renal | SF-539 CNS | NCI/ADR-RES ovarian | TK-10 renal

Cc1cc2c(c(C(=O)NCC(=O)O)c1)Oc1c(cc(C)cc1C(=O)NCC(=O)O)S2
> 100 µM: SK-MEL-2 melanoma | SK-MEL-28 melanoma | HT29 colon | SF-295 CNS | HOP-92 NSCLC | 786-0 renal | SF-539 CNS | NCI/ADR-RES ovarian | TK-10 renal

Cn1c2ccccc2n2c3ncccc3c(=O)cc12
> 100 µM: SK-MEL-28 melanoma | HT29 colon | UO-31 renal | SF-295 CNS | HOP-92 NSCLC | 786-0 renal | SF-539 CNS | NCI/ADR-RES ovarian | TK-10 renal

COC(=O)/C=C\n1nc(Br)c(=O)[nH]c1=O
> 100 µM: SK-MEL-2 melanoma | SK-MEL-28 melanoma | HT29 colon | UO-31 renal | HOP-92 NSCLC | SF-539 CNS | NCI/ADR-RES ovarian | TK-10 renal

COC(=O)C1C(=O)CC(C)(O)C(C(=O)OC)C1c1ccc(N(C)C)cc1 (stereo unspecified)
> 100 µM: SK-MEL-2 melanoma | SK-MEL-28 melanoma | HT29 colon | UO-31 renal | SF-295 CNS | HOP-92 NSCLC | NCI/ADR-RES ovarian | TK-10 renal
24.7 µM: 786-0 renal

O=C1C=CC(=O)c2c1ccc1c3ccccc3n(Cc3ccccc3)c21
> 100 µM: SF-295 CNS
> 68.4 µM: NCI/ADR-RES ovarian
50.1 µM: UO-31 renal
99.6 µM: SK-MEL-2 melanoma
54 µM: SK-MEL-28 melanoma
33.1 µM: 786-0 renal
> 74.1 µM: SF-539 CNS
35.1 µM: TK-10 renal
57 µM: HT29 colon

Cn1c2ccc(Cl)cc2c2ccc3c(c21)C(=O)C=CC3=O
> 10 µM: SK-MEL-2 melanoma | SK-MEL-28 melanoma | HT29 colon | SF-295 CNS | HOP-92 NSCLC | 786-0 renal | SF-539 CNS | NCI/ADR-RES ovarian | TK-10 renal

COc1cc(S(=O)(=O)Nc2ccc(-c3csc(N4C(=O)C(Cl)C4c4ccccc4O)n3)cc2)ccc1Cl (stereo unspecified)
91.9 µM: HOP-92 NSCLC
> 100 µM: SK-MEL-2 melanoma | SK-MEL-28 melanoma | HT29 colon | UO-31 renal | SF-295 CNS | 786-0 renal | SF-539 CNS | NCI/ADR-RES ovarian
